Test results: patent US5932580A, “PDGF receptor kinase inhibitory compounds their preparation and compositions” (priority 1997, dated 1999)
Where two headings read alike, the source gives them in different places.

Columns and labels:
PDGF β-receptor = target: T1, PDGF β-receptor (Sus scrofa, UniProt F1RL75); test: PDGF induced PDGFR autophosphorylation in intact SMC cells; type: cell-based; conditions: porcine arterial SMC
T1 construct: PDGF-BB stimulated; immunoprecipitated with PDGF beta-receptor specific antiserum R3
Protocol: Effect of tyrphostins on PDGF induced PDGFR autophosphorylation in intact SMC cells: Subconfluent porcine arterial smooth muscle cells, cultivated in Dulbecco's modified Eagle's medium (DMEM) supplemented with 15% fetal calf serum (FCS), were synchronized for 20 hours in a medium containing 2% FCS. […] After stimulation, the cells were solubilized in Nonidet P-40 (1%) containing lysis buffer.
The analysis of PDGF p-receptor phosphorylation was performed as follows. Cell lysates were subjected to immunoprecipitation using the PDGF β-receptor specific antiserum R3 [5]. The percipitates were subjected to polyacrylamide (7.5%) gel electrophoresis in presence of sodium deducyl sulfate (SDS-PAGE) and were thereafter blotted onto a nitrocellulose membrane (Hybond C-EXTRA, Amersham). Phosphorylated proteins were detected by immunoblotting using the horseradish-peroxidase conjugated phosphotyrosine antibody RC20H (Transduction Laboratories), followed by chemoluminescence-based detection (ECL, Amersham) and autoradiography.
Detection of receptor proteins was performed as follows. Cell lysates were subjected to immunoprecipitation using the PDGF β-receptor specific antiserum R3 [5], as described above, and the percipitates washed three times and thereafter subjected to SDS-PAGE (7.5%) and blotting onto a nitrocellulose membrane (Hybond C-EXTRA, Amersham). Receptor proteins were detected by immunoblotting using the horseradish-peroxidase conjugated donkey anti-rabbit antibody (Amersham), followed by chemoluminescence-based detection (ECL, Amersham) and autoradiography.

SRC kinase = target: T2, SRC kinase (Gallus gallus, UniProt P00523, Y527F); test: Src kinase activity assay (immunoprecipitate from src-transformed NIH 3T3 cells); type: biochemical, chicken
T2 construct: expressed in transfected cells; host or cells: NIH 3T3, stably transfected (gift of S. Courtneidge, Heidelberg)
Protocol: Src kinase activity assay: src-transformed NIH 3T3 cells were grown in 24-well plates to confluency; rinsed twice with a solution containing 20 mM Tris, 0.1 mM sodium-o-vanadate, and 150 mM NaCl (pH 7.5); and lysed in 100 μl/well of lysis buffer containing 20 mM Tris (pH 8.0), 150 mM NaCl, 1% Nonidet P-40, 2.5 mM EDTA, 10 mM NaF, 1% trasylol, and 20 μm leupeptin. The lysate was clarified by centrifugation and subjected to immunoprecipitation with the anti-Src monoclonal antibody MAb 327 (Oncogene Science; 0.5 μg antibody/80 μg protein) for 1 hour at 4° C. Then, goat anti-mouse IgG (Sigma; 0.2 μg per 0.5 μg monoclonal antibody 327) was added and incubation was continued for 30 mi followed by another 40 min of incubation with 10 μl of protein A-Sepharose Cl-4B (Pharmacia). The immunoprecipitates were washed five times with the lysis buffer and twice with kinase buffer containing 40 mM Hepes (pH 7.4), 0.5 mM dithiothreitol, 5 mM MnCl2, and 0.1 mM sodium-o-vanadate. The immunoprecipitates were suspended in kinase buffer and aliquots corresponding to 40 μg of cell lysate protein were preincubated with or without tyrphostin for 15 min at 30° C. Then, the kinase reaction was performed in the presence of 2 μg of acid-treated enolase and 10 μCi of [γ-^32 P]ATP (2 μM) in a final volume of 30 μl. The reaction was terminated by addition of SDS-PAGE sample buffer (6% SDS, 30% β-mercaptoetlhanol, 40% glycerol, and 0.5 mg/ml bromophenol blue) and the incorporation of radioactivity in the enolase was analyzed by SDS-PAGE and autoradiography as well as Phosphor-Imager quantification.

[1] = tested on: porcine aortic smooth muscle cells (SMC); test: Inhibition of cell proliferation and recovery, porcine SMC; type: cell-based; conditions: for inhibition at 10 µM: Sus scrofa
Protocol: Smooth muscle cells (SMC) were obtained under aseptic conditions from porcine abdominal aortas, and human internal mammary arteries (IMA). Specimens from the operating room were transferred on ice to the tissue culture room. Each artery was cut open and the endothelial surface mechanically scraped. […] The tissue fragments were then placed in an incubator at 37° C. under 9% CO2 atmosphere until SMC outgrowth was detected (typically within 3-7 days). […] For experiments testing the effect of tyrphostins on growth inhibition and recovery (see below), SMC from passages 1-3 were replated in 15 mm wells pretreated with 3 μg/cm^2 fibronectin (Biological Industries, Kibbutz Beit Haemek, Israel) at 15,000 cells/well.
Inhibition of cell proliferation and recovery: Monolayer cell growth inhibition and recovery experiments were repeated 3 or 4 times. Each experiment was performed in triplicate. […] Cultures were treated with a tyrphostin (10 μM) dissolved in 0.1% DMSO on days 1 and 3. On day 6, cultures were washed and the cells allowed to recover. Typically cells were counted on days 3 and 5 for inhibition, and on days 7, 10 and 15 for recovery, other schedules were also employed as reported below.

PDGFR = PDGFR autophosphorylation, isolated membranes or intact Swiss 3T3 cells; type: biochemical; conditions: read-out: IC50 (50% inhibition of phosphorylation) PDGFR
Protocol: Assay of receptor autophosphorylation in intact 3T3 cells: Confluent Swiss 3T3 cells in 24-well plates (Nunc) were incubated for 20-24 hours in serum-free DMEM. Subsequently, tyrphostins were added at concentrations ranging from 0 to 100 μM (final DMSO concentration, 0.5%) and the incubation was continued for 6-8 hours. The cells were then stimulated with 100 ng/ml PDGF-BB for 5 min at room temperature or 600 ng/ml EGF for 2.5 min on ice. The growth factor treatment was terminated by washing twice with ice-cold PBS and the cells were scraped off the wells in 60 μl lysis buffer containing 20 mM Hepes (pH 7.4), 150 mM NaCl, 1% Triton X-100, 10 mM sodium pyrophosphate, 50 mM NaF, 2 mM sodium-o-vanadate, 20 μm zinc acetate, 10 nM EDTA, 2 mM [ethylenebis(oxyethilenenitrilo)] tetraacetic acid, 1 mM phenylmethylsulfonyl fluoride, and 5 μg/ml leupeptin.
The cell lysates were clarified by centrifugation (cooled microfuge, 17,000 rpm, 15 min) and analyzed by SDS-PAGE (6.5% gels) and immunoblotting with anti-phosphotyrosine antibodies (either PY 20, ICN, and subsequently a peroxidase-coupled secondary antibody, or RC20-peroxidase conjugate, Affinity, Nottingham, United Kingdom). The blots were developed with a chemiluminescence detection system (Western Light, Tropix, or ECL, Amersham). In some experiments PDGF receptors were immunoprecipitated with PDGF-R3 or DIG-1 antibodies as described prior to the analysis by immunoblotting with anti-phosphotyrosine antibodies.
Membrane autophosphorylation assays: Membranes were prepared from confluent cultures of Swiss 3T3 cells as described. For measuring receptor autophosphorylation, 10 μg membrane protein per assay were incubated for 20 min on ice in the presence of 1.2 μg/ml EGF or 2 μg/ml PDGF, or both; 50 mM Hepes (pH 7.5); and 3 mm MnCl2 (final concentrations) in a volume of 45 μl. […] For quantification of radioactivity in electrophoresis gels, a Phospho-Imager (Molecular Dynamics, Fuji, or Bio-Rad) was used according to the instructions of the manufacturers. […]

EGFR = target: T3, EGFR (Mus musculus, UniProt Q01279); test: EGFR autophosphorylation, isolated membranes or intact Swiss 3T3 cells; type: biochemical; conditions: read-out: IC50 (50% inhibition of phosphorylation) EGFR
T3 construct: Membranes were prepared from confluent cultures of Swiss 3T3 cells; endogenous in cells; host or cells: Swiss 3T3 (obtained from E. Rozengurt, London)
T3 sequence (Q01279 25-1210): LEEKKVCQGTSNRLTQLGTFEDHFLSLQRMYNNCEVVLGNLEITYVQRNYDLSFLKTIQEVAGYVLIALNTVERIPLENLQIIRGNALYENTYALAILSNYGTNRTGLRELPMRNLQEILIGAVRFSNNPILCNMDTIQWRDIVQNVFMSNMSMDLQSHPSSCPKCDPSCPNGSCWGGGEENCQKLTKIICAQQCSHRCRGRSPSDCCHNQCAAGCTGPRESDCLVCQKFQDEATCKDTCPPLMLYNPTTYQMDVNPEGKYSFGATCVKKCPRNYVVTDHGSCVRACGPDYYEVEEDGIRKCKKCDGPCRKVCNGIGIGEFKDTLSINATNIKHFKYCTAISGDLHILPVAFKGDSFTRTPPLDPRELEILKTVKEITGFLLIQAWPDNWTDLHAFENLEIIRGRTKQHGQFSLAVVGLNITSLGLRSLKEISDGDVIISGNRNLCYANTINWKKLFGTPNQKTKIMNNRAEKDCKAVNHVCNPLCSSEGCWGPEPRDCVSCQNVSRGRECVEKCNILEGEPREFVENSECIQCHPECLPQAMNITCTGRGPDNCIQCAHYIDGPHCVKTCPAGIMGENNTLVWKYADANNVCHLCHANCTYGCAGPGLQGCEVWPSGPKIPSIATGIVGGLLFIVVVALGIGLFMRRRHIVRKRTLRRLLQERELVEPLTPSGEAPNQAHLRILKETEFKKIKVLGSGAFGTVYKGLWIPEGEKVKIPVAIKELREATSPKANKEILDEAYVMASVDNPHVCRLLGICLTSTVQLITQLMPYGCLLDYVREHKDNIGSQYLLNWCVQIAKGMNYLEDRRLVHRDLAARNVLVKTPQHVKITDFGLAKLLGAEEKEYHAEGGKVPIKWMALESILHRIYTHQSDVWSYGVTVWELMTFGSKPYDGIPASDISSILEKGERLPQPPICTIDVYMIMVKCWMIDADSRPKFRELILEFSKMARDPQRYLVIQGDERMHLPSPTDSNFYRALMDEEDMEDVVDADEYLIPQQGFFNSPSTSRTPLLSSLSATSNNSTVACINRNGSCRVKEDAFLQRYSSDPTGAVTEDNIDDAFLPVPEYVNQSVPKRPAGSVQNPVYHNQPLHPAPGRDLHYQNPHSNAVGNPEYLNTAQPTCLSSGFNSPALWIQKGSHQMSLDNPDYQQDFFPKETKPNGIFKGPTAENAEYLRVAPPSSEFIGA
Protocol: Membrane autophosphorylation assays: Membranes were prepared from confluent cultures of Swiss 3T3 cells as described [22]. For measuring receptor autophosphorylation, 10 μg membrane protein per assay were incubated for 20 min on ice in the presence of 1.2 μg/ml EGF or 2 μg/ml PDGF, or both; 50 mM Hepes (pH 7.5); and 3 mm MnCl2 (final concentrations) in a volume of 45 μl. In order to test the effects and determine the IC50 value of various tyrphostins, these were added in a volume of 0.5 μl (in DMSO; final concentration, 0.5%) 15 min before addition of the growth factors, in a range of concentrations. […] For quantification of radioactivity in electrophoresis gels, a Phospho-Imager (Molecular Dynamics, Fuji, or Bio-Rad) was used according to the instructions of the manufacturers. […]

T1 sequence (F1RL75 109-1181): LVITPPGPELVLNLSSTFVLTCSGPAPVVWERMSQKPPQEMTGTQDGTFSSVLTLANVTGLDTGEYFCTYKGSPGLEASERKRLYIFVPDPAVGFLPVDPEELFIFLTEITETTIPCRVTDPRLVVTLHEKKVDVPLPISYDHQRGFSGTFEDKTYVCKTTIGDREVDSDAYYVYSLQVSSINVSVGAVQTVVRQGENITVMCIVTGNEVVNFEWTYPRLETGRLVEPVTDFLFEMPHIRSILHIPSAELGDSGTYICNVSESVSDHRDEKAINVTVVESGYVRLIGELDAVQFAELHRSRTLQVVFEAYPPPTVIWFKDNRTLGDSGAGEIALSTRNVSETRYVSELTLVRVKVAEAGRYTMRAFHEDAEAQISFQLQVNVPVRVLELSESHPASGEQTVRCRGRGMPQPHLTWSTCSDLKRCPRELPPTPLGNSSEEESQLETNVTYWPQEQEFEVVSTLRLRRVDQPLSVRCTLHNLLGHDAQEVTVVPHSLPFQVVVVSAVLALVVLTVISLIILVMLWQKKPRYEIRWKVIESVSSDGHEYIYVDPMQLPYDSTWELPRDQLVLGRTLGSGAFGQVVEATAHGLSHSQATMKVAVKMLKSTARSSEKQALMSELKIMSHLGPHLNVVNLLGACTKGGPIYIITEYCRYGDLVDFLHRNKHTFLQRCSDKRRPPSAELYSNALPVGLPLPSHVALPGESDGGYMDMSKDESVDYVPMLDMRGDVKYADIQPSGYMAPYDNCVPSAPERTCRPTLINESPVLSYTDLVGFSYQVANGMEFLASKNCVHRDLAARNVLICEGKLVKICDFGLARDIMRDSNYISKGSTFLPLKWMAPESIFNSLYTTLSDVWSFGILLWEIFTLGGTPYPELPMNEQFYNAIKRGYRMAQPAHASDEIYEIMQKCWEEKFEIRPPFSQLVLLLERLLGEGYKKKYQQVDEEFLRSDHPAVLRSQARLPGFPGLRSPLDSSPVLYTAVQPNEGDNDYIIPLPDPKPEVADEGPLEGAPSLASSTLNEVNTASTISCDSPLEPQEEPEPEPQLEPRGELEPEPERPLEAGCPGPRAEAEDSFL

Cc1cc2ncc(-c3cccs3)nc2cc1C [AG1990]
level of PDGF β-receptor protein present in the cells (PDGF β-receptor): without affecting the level
inhibition of PDGF-BB induced PDGF β-receptor tyrosine-phosphorylation (PDGF β-receptor; tyrphostin 10 μM, 60 min preincubation, PDGF-BB 100 ng/ml): completely inhibited
IC50 (SRC kinase): 20 µM
inhibition at 10 µM ([1]; 120 h, by day 5 (day given for AG1295 and AG1992), read-out: reduction in SMC count / inhibition of SMC growth over control): 50%
inhibition at 10 µM ([1]; Table 2, read-out: mean reduction in SMC count compared to control cells (maximal inhibition in SMC growth)): 50%
reversibility of the inhibitory effect / recovery of SMC growth after washout ([1]; porcine SMC, cultures washed, cells allowed to recover): completely reversible
IC50 (PDGFR): 1 µM
IC50 (EGFR): > 30 µM
